For orientation: IC50 means the concentration needed to halve the response being measured.

This is an account of results in patent US20260055088A1, “HETEROCYCLIC COMPOUND, METHOD FOR PREPARING SAME, AND PHARMACEUTICAL USE THEREOF” (Jiangsu Hengrui Pharmaceuticals Co., Ltd., priority 2022, published 2026).

Where a name gives a salt, the structure may show the parent alone.

The target in this assay is Nav1.8 ion channel stably expressed on HEK293 cells (Homo sapiens (Human), UniProt Q9Y5Y9). The experiment in a line: Inhibitory activity against Nav1.8, manual patch clamp. It counts as cell-based. The conditions noted are these: resting protocol (-80 mV to 10 mV), 1 μM TTX, read-out: IC50 for the inhibition of Nav1.8 channel activity. From the text:
The objective of the experiment was to investigate the effects of the compounds on the Nav1.8 ion channel in ex vivo experiments. The Nav1.8 ion channel is stably expressed on HEK293 cells. After the Nav1.8 current stabilized, the effects of the compounds on the Nav1.8 ion channel were obtained by comparing the magnitudes of the Nav1.8 currents before and after the compounds were applied.
• 1) A patch clamp amplifier: patch clamp PC-505B (WARNER instruments)/MultiClamp 700A (Axon instrument) • 2) A digital-to-analog converter: Digidata 1440A (Axon CNS)/Digidata 1550A (Axon instruments) • 3) A micromanipulator: MP-225 (SUTTER instrument) • 4) An inverted microscope: TL4 (Olympus) • 5) Glass micropipette puller: PC-10 (NARISHIGE) • 6) Microelectrode glass capillaries: B12024F (Wuhan VitalSense Scientific Instruments Co., Ltd.) • 7) Dimethyl sulfoxide (DMSO) D2650 (Sigma-Aldrich) • 8) TTX AF3014 (Affix Scientific)
The compounds for preparing the intracellular and extracellular fluids were purchased from Sigma (St. Louis, MO) except for the NaOH and KOH for the acid-base titrations. The extracellular fluid (mM) was: NaCl, 137; KCl, 4; CaCl2, 1.8; MgCl2, 1; HEPES, 10; glucose, 10; pH 7.4 (NaOH titration). The intracellular fluid (mM) was: aspartic acid, 140; MgCl2, 2; EGTA, 11; HEPES, 10; pH 7.2 (CsOH titration). All test and control compound solutions contained 1 μM TTX.
The test compounds were stored at a concentration of 9 mM in dimethyl sulfoxide (DMSO). On the testing day, the compounds were further dissolved in the extracellular fluid to prepare the required concentrations.
1) After the compounds were prepared into solutions with specified concentrations, the compound solutions were sequentially added to channels in ascending order according to their concentrations, and each channel was labeled.
2) A cell was transferred to the perfusion chamber. Positive pressure was applied inside the electrode, and the electrode tip was brought into contact with the cell. The three-way valve of the suction device was switched to the state where all three ways were open, and negative pressure was then applied to the electrode, allowing a high-resistance seal to form between the electrode and the cell. The application of negative pressure was continued to rupture the cell membrane, leading to the formation of a current pathway.
3) After the cell membrane rupture current stabilized, perfusion was performed with different concentrations in sequence. If the current remained stable for at least one minute, perfusion was performed with the next concentration.
4) The perfusion chamber was cleaned. The perfusion chamber was rinsed with the compound solutions in descending order according to their concentrations, with each concentration applied for 20 s. Finally, the perfusion chamber was rinsed with the extracellular fluid for 1 min.
The cell was clamped at −80 mV and then depolarized to 10 mV using a square wave lasting for 10 ms to obtain a Nav1.8 current. This procedure was repeated once every 5 seconds. The maximum current induced by the square wave was detected. After the current stabilized, perfusion was performed with the test compounds. After the reaction stabilized, the strength of the blocking was calculated.
The data were stored on a computer system and analyzed. Data acquisition and analysis were performed using pCLAMP 10 (Molecular Devices, Union City, CA), and the results were reviewed by a manager. “Current stabilized” means that the changes in current over time were within a limited range. The magnitude of the current after stabilization was used to calculate the effect of the compound at this […].
The inhibitory activity of the compounds of the present disclosure against Nav1.8 was determined through the above assay.
In general terms: The patch-clamp technique gives a direct electrical read-out from membranes.
For the compound `COc1c([C@H]2[C@H](C(=O)Nc3ccnc(OCC(O)C4(O)CC4)c3)O[C@@](C)(C(F)(F)F)[C@H]2C)ccc(F)c1F` (stereo partly drawn) [Example 39, (2R,3S,4S,5R)-3-(3,4-Difluoro-2-methoxyphenyl)-N-(2-(2-hydroxy-2-(1-hydroxycyclopropyl)ethoxy)pyridin-4-yl)-4,5-dimethyl-5-(trifluoromethyl)tetrahydrofuran-2-carboxamide], the IC50 was determined as 2.68 nM.

With `COc1c([C@H]2[C@H](C(=O)Nc3ccc(F)c(C(=N)N)c3)O[C@@](C)(C(F)(F)F)[C@H]2C)ccc(F)c1F` [Example 27, (2R,3S,4S,5R)—N-(3-Carbamimidoyl-4-fluorophenyl)-3-(3,4-difluoro-2-methoxyphenyl)-4,5-dimethyl-5-(trifluoromethyl)tetrahydrofuran-2-carboxamide], the 50% inhibitory concentration (IC50) is < 0.16 nM. Regarding `[2H]C([2H])([2H])O/N=C(\N)c1cc(NC(=O)[C@@H]2O[C@@](C)(C(F)(F)F)[C@@H](C)[C@H]2c2ccc(F)c(F)c2OC)ccn1` [Example 37, (2R,3S,4S,5R)-3-(3,4-Difluoro-2-methoxyphenyl)-N-(2-((Z)—(N′-methoxy-d3)carbamimidoyl)pyridin-4-yl)-4,5-dimethyl-5-(trifluoromethyl)tetrahydrofuran-2-carboxamide], the IC50 came out at 1.86 nM.

In the case of `COc1c([C@H]2[C@H](C(=O)Nc3ccnc(OC[C@H](O)CO)c3)O[C@@](C)(C(F)(F)F)[C@H]2C)ccc(F)c1F` [Example 2, (2R,3S,4S,5R)-3-(3,4-Difluoro-2-methoxyphenyl)-N-(2-((R)-2,3-dihydroxypropoxy)pyridin-4-yl)-4,5-dimethyl-5-(trifluoromethyl)tetrahydrofuran-2-carboxamide], the IC50 is 2.89 nM. As to `COc1c([C@H]2[C@H](C(=O)Nc3ccnc(C(=O)C(N)=O)c3)O[C@@](C)(C(F)(F)F)[C@H]2C)ccc(F)c1F` [Example 26, (2R,3S,4S,5R)—N-(2-(2-Amino-2-oxoacetyl)pyridin-4-yl)-3-(3,4-difluoro-2-methoxyphenyl)-4,5-dimethyl-5-(trifluoromethyl)tetrahydrofuran-2-carboxamide trifluoroacetate], the IC50 was found to be 1.09 nM. As to `COc1c([C@H]2[C@H](C(=O)Nc3ccnc(C(=O)NNC4CC4)c3)O[C@@](C)(C(F)(F)F)[C@H]2C)ccc(F)c1F` [Example 23, (2R,3S,4S,5R)—N-(2-(2-Cyclopropylhydrazine-1-carbonyl)pyridin-4-yl)-3-(3,4-difluoro-2-methoxyphenyl)-4,5-dimethyl-5-(trifluoromethyl)tetrahydrofuran-2-carboxamide], the IC50 was found to be 2.85 nM. In the case of `CONC(=O)c1cc(NC(=O)[C@@H]2O[C@@](C)(C(F)(F)F)[C@@H](C)[C@H]2c2ccc(F)c(F)c2OC)ccn1` [Example 5, 4-((2R,3S,4S,5R)-3-(3,4-Difluoro-2-methoxyphenyl)-4,5-dimethyl-5-(trifluoromethyl)tetrahydrofuran-2-carboxamido)-N-methoxypicolinamide] it was 0.71 nM. On to `COc1c([C@H]2[C@H](C(=O)Nc3ccnc(C(C)(C)O)c3)O[C@@](C)(C(F)(F)F)[C@H]2C)ccc(F)c1F` [Example 3, (2R,3S,4S,5R)-3-(3,4-Difluoro-2-methoxyphenyl)-N-(2-(2-hydroxypropan-2-yl)pyridin-4-yl)-4,5-dimethyl-5-(trifluoromethyl)tetrahydrofuran-2-carboxamide], for which the IC50 came to 2.65 nM. Take `COc1c([C@H]2[C@H](C(=O)Nc3ccnc(C(=O)NN(C)C)c3)O[C@@](C)(C(F)(F)F)[C@H]2C)ccc(F)c1F` [Example 24, (2R,3S,4S,5R)-3-(3,4-Difluoro-2-methoxyphenyl)-N-(2-(2,2-dimethylhydrazine-1-carbonyl)pyridin-4-yl)-4,5-dimethyl-5-(trifluoromethyl)tetrahydrofuran-2-carboxamide]: the half-maximal inhibitory concentration (IC50) was found to be 2.12 nM.
